For data set [1], the system named is CCRF-CEM. Kind of data set: NCI IVCLSP growth inhibition (SRB), CCRF-CEM. It counts as cell-based, human. Conditions: 48 h drug incubation. As for the experimental part: (§1) FIG. 1 presents nine compounds that were tested using the National Cancer Institute (NCI) 60 human tumor cell lines. The cells lines, which represent leukemia, melanoma, and cancers of the lung, colon, brain, ovary, breast, prostate, and kidney, are listed in Table 1.
(§2) Compounds 1-9 were tested according to the NCI Developmental Therapeutics Program (DTP) In Vitro Cell Line Screening Project (IVCLSP). […] Methodology for testing under the IVCLSP is as follows: The human tumor cell lines of the cancer screening panel are grown in RPMI 1640 medium containing 5% fetal bovine serum and 2 mM L-glutamine. […]
(§3) Following drug addition, the plates are incubated for an additional 48 h at 37° C., 5% CO2, 95% air, and 100% relative humidity. […] Bound stain is subsequently solubilized with 10 mM trizma base, and the absorbance is read on an automated plate reader at a wavelength of 515 nm. […] Using the seven absorbance measurements [time zero, (Tz), control growth, (C), and test growth in the presence of drug at the five concentration levels (Ti)], the percentage growth is calculated at each of the drug concentrations levels. Percentage growth inhibition is calculated as: [(Ti−Tz)/(C−Tz)]×100 for concentrations for which Ti>/=Tz [(Ti−Tz)/Tz]×100 for concentrations for which Ti<Tz.
(§4) Three dose response parameters are calculated for each experimental agent. […]

For data set [2], the system named is MOLT-4. As to the kind of experiment: NCI IVCLSP growth inhibition (SRB), MOLT-4. The data set is classed as cell-based, human. Conditions: 48 h drug incubation. How it is done:
as §1, §2, §3, §4

Data set [3] deals with EKVX. As to the kind of experiment: NCI IVCLSP growth inhibition (SRB), EKVX. It counts as cell-based, human. Conditions: 48 h drug incubation. As for the experimental part:
as §1, §2, §3, §4

Data set [4] relates to IGROVI. Kind of data set: NCI IVCLSP growth inhibition (SRB), IGROVI. The data set is classed as cell-based, human. The conditions noted are these: 48 h drug incubation. How it is done:
as §1, §2, §3, §4

Data set [5] relates to OVCAR-5. Kind of data set: NCI IVCLSP growth inhibition (SRB), OVCAR-5. It counts as cell-based, human. Conditions: 48 h drug incubation. How it is done: as §1, §2, §3, §4
The subject of data set [6] is A498. As to the kind of experiment: NCI IVCLSP growth inhibition (SRB), A498. Conditions: A498; 48 h drug incubation, SRB. The data set is classed as cell-based, human. How it is done: as §1, §2, §3, §4
Data set [7] relates to ACHN. As to the kind of experiment: NCI IVCLSP growth inhibition (SRB), ACHN. It counts as cell-based, human. Conditions: 48 h drug incubation. As for the experimental part:
as §1, §2, §3, §4

In data set [8] the test system is SW-620. As to the kind of experiment: NCI IVCLSP growth inhibition (SRB), SW-620. The data set is classed as cell-based, human. The conditions noted are these: 48 h drug incubation. As for the experimental part: as §1, §2, §3, §4
For data set [9], the system named is SNB-19. As to the kind of experiment: NCI IVCLSP growth inhibition (SRB), SNB-19. It counts as cell-based, human. Conditions: 48 h drug incubation. As for the experimental part:
as §1, §2, §3, §4

The test system of data set [10] is U251. Kind of data set: NCI IVCLSP growth inhibition (SRB), U251. The data set is classed as cell-based, human. Conditions: 48 h drug incubation. How it is done: as §1, §2, §3, §4
The test system of data set [11] is DU-145. As to the kind of experiment: NCI IVCLSP growth inhibition (SRB), DU-145. The data set is classed as cell-based, human. Conditions: 48 h drug incubation. How it is done: as §1, §2, §3, §4
Data set [12] has as its system MCF7. Kind of data set: NCI IVCLSP growth inhibition (SRB), MCF7. It counts as cell-based, human. Conditions: 48 h drug incubation. As for the experimental part:
as §1, §2, §3, §4

Data set [13] has as its system MDA-MB-435. As to the kind of experiment: NCI IVCLSP growth inhibition (SRB), MDA-MB-435. It counts as cell-based, human. Conditions: 48 h drug incubation. As for the experimental part: as §1, §2, §3, §4
Data set [14] concerns BT-549. As to the kind of experiment: NCI IVCLSP growth inhibition (SRB), BT-549. It counts as cell-based, human. Conditions: 48 h drug incubation. As for the experimental part: as §1, §2, §3, §4
In data set [15] the test system is WAF1. As to the kind of experiment: Western blot, WAF1 expression in MCF-7 cells. It counts as cell-based, human. The conditions noted are these: 24 hours, various concentrations. How it is done:
To further characterize the cell cycle effects of Compound 1 on human tumor cells, MCF-7 cells were treated for 24 hours with various concentrations of Compound 1, vinblastine, or TAXOL (paclitaxel). Cells were then harvested, lysed, and analyzed for levels of expression of p53 and WAF1 by Western Blot analyses. […] Compound 1 is identified as “149” in these figures. […] None of these treatments affected the expression of bcl-2 or P-tubulin in the MCF-7 cells.
In general terms: In western blotting, separated proteins are transferred to a membrane and probed.

Data set [16] concerns the target T1, P-glycoprotein (Homo sapiens, UniProt P08183).
T1 construct: NCI/ADR cells that overexpress P-glycoprotein; endogenous in cells; host or cells: NCI/ADR cells
Kind of data set: P-glycoprotein antagonism: sensitivity of NCI/ADR cells to vinblastine. Conditions: absence or presence of 50 nM vinblastine. The data set is classed as cell-based. From the text:
To determine if this is due to inhibition of drug transport activity by these proteins, the effects of these compounds on P-glycoprotein were further characterized. The effects of the compounds on the sensitivity of NCI/ADR cells to vinblastine and of MCF-7/VP cells to vincristine were examined to evaluate antagonism of P-glycoprotein and MRP1, respectively. FIGS. 4a-b present graphs of antagonism score versus concentration for P-glycoprotein and MRP1, respectively.
The Pgp antagonism score is calculated as the percentage survival of cells in the absence of vinblastine/percentage survival in the presence of vinblastine. […] The MRP1 antagonism score is calculated as the percentage survival of cells in the absence of vincristine/percentage survival in the presence of vincristine. […] Concentrations of Compounds 1-5 above their IC50 toward MCF-7 cells are not indicated. Data for one of three similar experiments is shown.

The structures appear in SMILES notation. Where only a bound is given, the exact number is not on record here.

T1 sequence (P08183 whole entry): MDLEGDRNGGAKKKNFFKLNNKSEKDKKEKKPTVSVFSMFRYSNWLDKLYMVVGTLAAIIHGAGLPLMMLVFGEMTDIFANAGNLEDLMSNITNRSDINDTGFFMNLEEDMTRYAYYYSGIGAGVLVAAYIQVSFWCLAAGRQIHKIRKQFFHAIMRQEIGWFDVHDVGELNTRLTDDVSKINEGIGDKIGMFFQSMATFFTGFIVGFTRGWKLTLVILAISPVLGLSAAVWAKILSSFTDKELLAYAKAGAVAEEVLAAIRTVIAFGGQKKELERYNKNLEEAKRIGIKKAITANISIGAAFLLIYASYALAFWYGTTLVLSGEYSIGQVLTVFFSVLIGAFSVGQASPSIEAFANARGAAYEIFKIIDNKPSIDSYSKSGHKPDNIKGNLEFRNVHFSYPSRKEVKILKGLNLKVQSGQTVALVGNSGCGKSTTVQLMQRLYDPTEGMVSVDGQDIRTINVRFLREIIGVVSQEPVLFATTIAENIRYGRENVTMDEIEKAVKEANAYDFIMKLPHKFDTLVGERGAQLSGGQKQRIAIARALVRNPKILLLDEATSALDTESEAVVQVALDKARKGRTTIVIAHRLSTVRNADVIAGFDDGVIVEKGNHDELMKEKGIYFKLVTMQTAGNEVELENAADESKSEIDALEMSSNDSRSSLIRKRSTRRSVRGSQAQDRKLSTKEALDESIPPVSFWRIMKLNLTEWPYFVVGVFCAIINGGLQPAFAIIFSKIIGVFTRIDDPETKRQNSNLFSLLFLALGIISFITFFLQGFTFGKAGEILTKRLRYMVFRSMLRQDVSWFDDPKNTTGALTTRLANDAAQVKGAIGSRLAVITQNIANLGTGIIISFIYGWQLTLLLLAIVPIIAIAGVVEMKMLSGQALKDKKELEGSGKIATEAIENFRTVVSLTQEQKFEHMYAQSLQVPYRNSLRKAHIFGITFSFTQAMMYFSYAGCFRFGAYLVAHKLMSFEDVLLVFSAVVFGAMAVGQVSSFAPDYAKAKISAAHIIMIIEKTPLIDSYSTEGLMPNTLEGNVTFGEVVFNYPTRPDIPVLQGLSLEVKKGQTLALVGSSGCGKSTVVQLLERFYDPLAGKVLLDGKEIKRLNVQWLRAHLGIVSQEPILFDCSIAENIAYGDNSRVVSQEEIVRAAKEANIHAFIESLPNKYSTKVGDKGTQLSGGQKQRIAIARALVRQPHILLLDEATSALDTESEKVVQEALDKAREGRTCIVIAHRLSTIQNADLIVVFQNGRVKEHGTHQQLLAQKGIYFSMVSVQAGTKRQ

What is called GI50 is the concentration giving 50% growth inhibition. As for `COc1cc(CCc2cn(Cc3ccccc3)c3nc(N)nc(C)c23)cc(OC)c1OC` [Compound 1], the GI50 in [1] is 58 nM; in data set [2], 285 nM; in [3], 424 nM; in [4], 61.1 nM; in data set [5], above 1000 nM; in [6], 136 nM. Also, the concentration for 50% growth inhibition (GI50) in data set [7] amounted to 728 nM; in [8] it was 236 nM; in data set [9] it was 273 nM; in data set [10] it was 144 nM; in data set [11], 224 nM; in [12], 118 nM. Further, the figures for the GI50 in data set [13] and in [14] were 10.1 nM and above 1000 nM, respectively. In addition, the “level of expression of WAF1 (in words)” value in data set [15] is reported as “induced the expression”. Besides, the “effect on P-glycoprotein-mediated resistance (in words)” value in data set [16] was “no affect on P-glycoprotein at doses below its IC50”.

The values above are taken from patent publication US8501752B2, “Methods for treating cancer and other pathological proliferating disorders by inhibiting mitosis using pyrrolo[2,3-d]pyrimidines” (Duquesne University of the Holy Ghost, priority 2005, dated 2013).
